Measurements taken from PubChem BioAssay (NCI).
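Five concentrations, 48 hours, 96-well plates. TGI: concentration producing complete growth inhibition.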

Columns and labels:
Experiment in all cases: NCI tumour cell line growth inhibition, 48 h
CCRF-CEM leukemia = system: CCRF-CEM leukemia
NCI-H23 lung = system: NCI-H23 lung
A549 NSCLC = system: A549 NSCLC
BT-549 breast = system: BT-549 breast
UO-31 renal = system: UO-31 renal
TK-10 renal = system: TK-10 renal
RPMI-8226 leukemia = system: RPMI-8226 leukemia
ACHN renal = system: ACHN renal
NCI-H522 lung = system: NCI-H522 lung
SNB-19 CNS = system: SNB-19 CNS
RXF 393 renal = system: RXF 393 renal
CAKI-1 renal = system: CAKI-1 renal
U251 CNS = system: U251 CNS
HS 578T breast = system: HS 578T breast
HCC-2998 colon = system: HCC-2998 colon
KM12 colon = system: KM12 colon
HCT-116 colon = system: HCT-116 colon
NCI-H460 lung = system: NCI-H460 lung
MDA-MB-435 = system: MDA-MB-435
SN12C renal = system: SN12C renal
MDA-N = system: MDA-N
OVCAR-5 ovarian = system: OVCAR-5 ovarian
NCI/ADR-RES ovarian = system: NCI/ADR-RES ovarian
UACC-62 melanoma = system: UACC-62 melanoma
T-47D breast = system: T-47D breast
SK-MEL-2 melanoma = system: SK-MEL-2 melanoma
HOP-62 NSCLC = system: HOP-62 NSCLC
LOX IMVI melanoma = system: LOX IMVI melanoma
MCF7 breast = system: MCF7 breast
MDA-MB-231 breast = system: MDA-MB-231 breast
K-562 leukemia = system: K-562 leukemia
OVCAR-8 ovarian = system: OVCAR-8 ovarian
OVCAR-4 ovarian = system: OVCAR-4 ovarian
IGROV1 ovarian = system: IGROV1 ovarian
MALME-3M melanoma = system: MALME-3M melanoma
A498 renal = system: A498 renal
OVCAR-3 ovarian = system: OVCAR-3 ovarian
SF-295 CNS = system: SF-295 CNS
SF-268 CNS = system: SF-268 CNS
EKVX NSCLC = system: EKVX NSCLC
SK-OV-3 ovarian = system: SK-OV-3 ovarian
SW-620 colon = system: SW-620 colon
COLO 205 colon = system: COLO 205 colon
HOP-92 NSCLC = system: HOP-92 NSCLC
SK-MEL-5 melanoma = system: SK-MEL-5 melanoma
786-0 renal = system: 786-0 renal
HT29 colon = system: HT29 colon
SK-MEL-28 melanoma = system: SK-MEL-28 melanoma
SNB-75 CNS = system: SNB-75 CNS
HL-60(TB) leukemia = system: HL-60(TB) leukemia
HCT-15 colon = system: HCT-15 colon
DU-145 prostate = system: DU-145 prostate
MOLT-4 leukemia = system: MOLT-4 leukemia
PC-3 prostate = system: PC-3 prostate
M14 melanoma = system: M14 melanoma
UACC-257 melanoma = system: UACC-257 melanoma
NCI-H226 lung = system: NCI-H226 lung
SF-539 CNS = system: SF-539 CNS

In the case of `O=C1/C(=C/c2ccc(Cl)cc2)N=C(c2ccccc2)N1c1nc2ccc(Sc3ccccc3)cc2[nH]1`, the TGI (CCRF-CEM leukemia) is reported as 87 µM, the TGI (NCI-H23 lung) is reported as over 100 µM and the TGI (A549 NSCLC) is reported as over 100 µM. The TGI (BT-549 breast) was 57.7 µM, the TGI (UO-31 renal) was over 100 µM and the TGI (TK-10 renal) was 59.6 µM. The TGI (RPMI-8226 leukemia) was 55.7 µM, the TGI (ACHN renal) was over 100 µM and the TGI (NCI-H522 lung) was 54.3 µM. The TGI (SNB-19 CNS) was over 100 µM, the TGI (RXF 393 renal) was over 100 µM and the TGI (CAKI-1 renal) was over 100 µM. For the same compound, the TGI (U251 CNS) was 84.7 µM, the TGI (HS 578T breast) was 91.4 µM and the TGI (HCC-2998 colon) was 31.4 µM. The TGI (KM12 colon) was 81.2 µM, the TGI (HCT-116 colon) was 62.3 µM and the TGI (NCI-H460 lung) was 61.8 µM. The TGI (MDA-MB-435) was 27.1 µM, the TGI (SN12C renal) was over 100 µM and the TGI (MDA-N) was 27.7 µM. The TGI (OVCAR-5 ovarian) was over 100 µM, the TGI (NCI/ADR-RES ovarian) was 75.5 µM and the TGI (UACC-62 melanoma) was 29.8 µM. It also gave a TGI (T-47D breast) of over 100 µM, a TGI (SK-MEL-2 melanoma) of 31.6 µM and a TGI (HOP-62 NSCLC) of over 100 µM. The TGI (LOX IMVI melanoma) was 61.9 µM, the TGI (MCF7 breast) was 63.5 µM and the TGI (MDA-MB-231 breast) was 90.1 µM. For the same compound, the TGI (K-562 leukemia) was 61.8 µM, the TGI (OVCAR-8 ovarian) was over 100 µM and the TGI (OVCAR-4 ovarian) was over 100 µM. For the same compound, the TGI (IGROV1 ovarian) was over 100 µM, the TGI (MALME-3M melanoma) was 58.9 µM and the TGI (A498 renal) was 72.3 µM. The TGI (OVCAR-3 ovarian) was over 100 µM, the TGI (SF-295 CNS) was 87.1 µM and the TGI (SF-268 CNS) was over 100 µM. For the same compound, the TGI (EKVX NSCLC) was over 100 µM, the TGI (SK-OV-3 ovarian) was over 100 µM and the TGI (SW-620 colon) was 80.8 µM. For the same compound, the TGI (COLO 205 colon) was 33.8 µM, the TGI (HOP-92 NSCLC) was over 100 µM and the TGI (SK-MEL-5 melanoma) was 29.2 µM. For the same compound, the TGI (786-0 renal) was 64.6 µM, the TGI (HT29 colon) was 40 µM and the TGI (SK-MEL-28 melanoma) was 72.7 µM. The TGI (SNB-75 CNS) was 60.2 µM, the TGI (HL-60(TB) leukemia) was 35.6 µM and the TGI (HCT-15 colon) was over 100 µM. For the same compound, the TGI (DU-145 prostate) was over 100 µM, the TGI (MOLT-4 leukemia) was 87.6 µM and the TGI (PC-3 prostate) was over 100 µM. For the same compound, the TGI (M14 melanoma) was 35.1 µM and the TGI (UACC-257 melanoma) was 55.8 µM.

For `C=C1C(=O)C23CC1CCC2C12CO[C@H](O)[C@H]1C(C)(C)[C@H](OC(C)=O)C[C@H]2OC3=O` (stereo partly specified), the TGI (CCRF-CEM leukemia) was over 100 µM, the TGI (NCI-H23 lung) was over 100 µM and the TGI (A549 NSCLC) was over 100 µM. The TGI (NCI-H226 lung) was over 100 µM, the TGI (BT-549 breast) was 21.9 µM and the TGI (UO-31 renal) was 67.7 µM. It also gave a TGI (TK-10 renal) of 28.5 µM, a TGI (RPMI-8226 leukemia) of over 100 µM and a TGI (ACHN renal) of 29.6 µM. For the same compound, the TGI (NCI-H522 lung) was 3.63 µM, the TGI (SNB-19 CNS) was over 100 µM and the TGI (CAKI-1 renal) was 28.8 µM. For the same compound, the TGI (U251 CNS) was over 100 µM, the TGI (HS 578T breast) was over 100 µM and the TGI (HCC-2998 colon) was 54.2 µM. It also gave a TGI (KM12 colon) of over 100 µM, a TGI (HCT-116 colon) of 28 µM and a TGI (NCI-H460 lung) of over 100 µM. The TGI (MDA-MB-435) was 44.8 µM, the TGI (SF-539 CNS) was 41.7 µM and the TGI (SN12C renal) was 46.2 µM. For the same compound, the TGI (MDA-N) was 30.6 µM, the TGI (OVCAR-5 ovarian) was 33.3 µM and the TGI (NCI/ADR-RES ovarian) was over 100 µM. For the same compound, the TGI (UACC-62 melanoma) was 28.9 µM, the TGI (T-47D breast) was 40.5 µM and the TGI (SK-MEL-2 melanoma) was 31.1 µM. For the same compound, the TGI (LOX IMVI melanoma) was 33.7 µM, the TGI (MCF7 breast) was 32.4 µM and the TGI (MDA-MB-231 breast) was 37.2 µM. For the same compound, the TGI (K-562 leukemia) was over 100 µM, the TGI (OVCAR-8 ovarian) was over 100 µM and the TGI (OVCAR-4 ovarian) was over 100 µM. It also gave a TGI (IGROV1 ovarian) of over 100 µM, a TGI (MALME-3M melanoma) of 28.1 µM and a TGI (OVCAR-3 ovarian) of 55.2 µM. The TGI (SF-295 CNS) was over 100 µM, the TGI (SF-268 CNS) was 34.2 µM and the TGI (EKVX NSCLC) was 29.1 µM. For the same compound, the TGI (SK-OV-3 ovarian) was over 100 µM, the TGI (SW-620 colon) was 30.5 µM and the TGI (COLO 205 colon) was 28.8 µM. The TGI (HOP-92 NSCLC) was 22.2 µM, the TGI (SK-MEL-5 melanoma) was 77.1 µM and the TGI (786-0 renal) was 29.9 µM. It also gave a TGI (HT29 colon) of 27.1 µM, a TGI (SK-MEL-28 melanoma) of 33.2 µM and a TGI (SNB-75 CNS) of over 100 µM. For the same compound, the TGI (HL-60(TB) leukemia) was 87.9 µM, the TGI (HCT-15 colon) was 28.8 µM and the TGI (DU-145 prostate) was 83.3 µM. For the same compound, the TGI (MOLT-4 leukemia) was 82.2 µM, the TGI (PC-3 prostate) was over 100 µM and the TGI (M14 melanoma) was 53.2 µM. For the same compound, the TGI (UACC-257 melanoma) was over 100 µM.
